“Also recorded” adds a separate entry of the source.
Legend:
[1] = tested on: hippocampal LTP in slices from arcAβ mice and wt littermates; experiment: Tautomycin bath application to acute hippocampal slices, LTP measurement (fEPSP recordings); assay type: cell-based, mouse; conditions: 1 nM tautomycin, at least 1 h before recording
[2] = biological target: T1, recombinant PP1 (Oryctolagus cuniculus, UniProt P62139); experiment: PP1 activity assay (Biomol Green Assay-Kit); assay type: biochemical; conditions: 1 nM tautomycin
T1 construct: purchased NEB
Method: (§1) Activity of recombinant PP1 (NEB) and calcineurin (Biomol) was measured with and without 1 nM tautomycin using the Biomol Green Assay-Kit (Biomol) according to manufacturer's instruction.

[3] = biological target: T2, calcineurin (Homo sapiens, UniProt Q08209); experiment: Phosphatase activity assay (Biomol Green Assay-Kit), calcineurin; assay type: biochemical; conditions: 1 nM tautomycin
T2 construct: purchased Biomol
Method: as §1

[4] = tested on: hippocampal LTP in slices from wildtype, I-1* control and I-1* transgenic mice; experiment: Aβ-oligomers bath application to acute hippocampal slices, LTP measurement; assay type: cell-based, mouse

T1 sequence (P62139 whole entry): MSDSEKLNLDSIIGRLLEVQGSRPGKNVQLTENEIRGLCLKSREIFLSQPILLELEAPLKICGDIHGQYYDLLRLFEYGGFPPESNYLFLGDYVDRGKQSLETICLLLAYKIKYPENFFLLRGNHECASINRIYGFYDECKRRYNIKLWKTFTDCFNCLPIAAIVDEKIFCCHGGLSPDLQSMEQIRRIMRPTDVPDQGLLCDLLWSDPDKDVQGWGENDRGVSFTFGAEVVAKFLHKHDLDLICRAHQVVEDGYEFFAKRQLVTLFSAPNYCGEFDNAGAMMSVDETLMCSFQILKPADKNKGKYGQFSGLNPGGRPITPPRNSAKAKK
T2 sequence (P63098 2-170, other chains not shown): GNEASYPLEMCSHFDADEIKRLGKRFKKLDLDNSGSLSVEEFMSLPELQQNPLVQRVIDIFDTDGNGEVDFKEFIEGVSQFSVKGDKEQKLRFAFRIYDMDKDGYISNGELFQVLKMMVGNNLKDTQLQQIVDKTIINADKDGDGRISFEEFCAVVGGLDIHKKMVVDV

## CO[C@H]([C@H](O)CC(=O)[C@@H](C)[C@@H](O)CC[C@@H](C)[C@@H]1O[C@]2(CC[C@@H](C)[C@H](CC[C@H](C)C(C)=O)O2)CC[C@@H]1C)[C@H](OC(=O)C[C@@H](O)C1=C(C)C(=O)OC1=O)C(C)C [tautomycin]
[1]; 3 months old arcAβ mice
  effect on LTP deficit in slices from arcAβ (tg) mice (in words): fully rescued the LTP deficit; also recorded: full rescue of LTP
[1]; wt littermates
  effect on LTP in slices from wt (non-transgenic) mice (in words): has no effect
[2]
  inhibition at 0.001 µM: ~90%
  inhibition of recombinant PP1 activity (in words): specifically inhibits the activity of recombinant PP1
[3]
  inhibition at 0.001 µM: < 10%
  inhibition of calcineurin activity (in words): not calcineurin

## Aβ-oligomers: oligomers produced from synthetic Aβ 1-42 (Bachem) according to Klein
[4]; Aβ-oligomers bath-applied at least 1 h, I-1* littermate controls
  effect on LTP in slices from I-1* control mice (in words): impair LTP; also recorded: Aβ-oligomers mediated LTP deficit
[4]; Aβ-oligomers bath-applied at least 1 h, I-1* transgenic mice
  effect on LTP in slices from I-1* transgenic (mutant) mice with reduced PP1 activity (in words): not in mutant mice; also recorded: failed to inhibit LTP
[4]; Aβ-oligomers corresponding to 0.5 μM initial peptide, bath-applied at least 1 h
  effect on LTP in slices from wildtype mice (in words): impair LTP; also recorded: LTP was inhibited

— patent publication US20110086908A9, “USE OF PHOSPHATASE INHIBITORS FOR THE TREATMENT OF NEURODEGENERATIVE DISEASES” (priority 2007, published 2011)
